Reference: patent US9884868B2, “TGF-beta inhibitors” (Rigel Pharmaceuticals, Inc., priority 2015, dated 2018)

Each compound was assayed against HIS-TGF-βR1 T204D (Homo sapiens (Human), UniProt P36897, T204D) (assay: HTRF probe displacement assay with HIS-TGF-βR1 T204D). Conditions: not given.
Chain of HIS-TGF-βR1 T204D (P36897 34-503 T204D): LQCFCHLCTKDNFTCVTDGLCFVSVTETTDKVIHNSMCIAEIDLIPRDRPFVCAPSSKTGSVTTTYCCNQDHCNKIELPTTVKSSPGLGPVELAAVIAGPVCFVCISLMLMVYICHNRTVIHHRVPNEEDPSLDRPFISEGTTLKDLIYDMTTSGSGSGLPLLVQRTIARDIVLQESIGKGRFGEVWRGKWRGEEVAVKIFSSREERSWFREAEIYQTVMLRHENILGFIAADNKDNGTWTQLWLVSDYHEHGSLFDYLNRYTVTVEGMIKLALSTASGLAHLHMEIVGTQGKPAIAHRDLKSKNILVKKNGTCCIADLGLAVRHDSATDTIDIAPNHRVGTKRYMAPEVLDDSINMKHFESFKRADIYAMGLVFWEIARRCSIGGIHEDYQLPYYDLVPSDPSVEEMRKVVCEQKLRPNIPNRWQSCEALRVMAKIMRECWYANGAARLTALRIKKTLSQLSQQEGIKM

IC50 | Structure (SMILES)
6.8 nM | N#Cc1cnc2ccc(-c3c(-c4ccc(F)cc4)ncn3CCC(F)(F)F)nn12 [4′, 6-(4-(4-fluorophenyl)-1-(3,3,3-trifluoropropyl)-1H-imidazol-5-yl)imidazo[1,2-b]pyridazine-3-carbonitrile]

Same assay, conditions: read-out: TGFbr1 IC50; HTRF probe displacement, 1 nM HIS-TGF-βR1 T204D, 1 hour at room temperature

IC50 | Structure (SMILES)
5.5 nM | N#Cc1cnc2ccc(-c3c(-c4ccc(F)cc4)ncn3C3CCC(F)(F)C3)nn12 (stereo not drawn) [5′, 6-(1-(3,3-difluorocyclopentyl)-4-(4-fluorophenyl)-1H-imidazol-5-yl)imidazo[1,2-b]pyridazine-3-carbonitrile]
4.2 nM | NC(=O)c1cnc2ccc(-c3c(-c4ccc(F)cc4)ncn3[C@H]3C[C@@H](O)C3)nn12 [Example 123′]
1.6 nM | CC1(Cn2cnc(-c3ccc(F)c(Cl)c3)c2-c2ccc3ncc(C#N)n3n2)CC1 [62′, 6-(4-(3-chloro-4-fluorophenyl)-1-((1-methylcyclopropyl)methyl)-1H-imidazol-5-yl)imidazo[1,2-b]pyridazine-3-carbonitrile]
2.2 nM | N#Cc1cnc2ccc(-c3c(-c4ccc(F)cc4)ncn3CCC(F)F)nn12 [20′, 6-(1-(3,3-difluoropropyl)-4-(4-fluorophenyl)-1H-imidazol-5-yl)imidazo[1,2-b]pyridazine-3-carbonitrile]
67.8 nM | N#Cc1cnc2ccc(-c3c(-c4ccc(F)cc4)ncn3CC3CCC3)cn12 [72′, 6-(1-(cyclobutylmethyl)-4-(4-fluorophenyl)-1H-imidazol-5-yl)imidazo[1,2-a]pyridine-3-carbonitrile]
20.9 nM | Fc1ccc(-c2ncn(CC(F)F)c2-c2ccc3ncc(C(F)F)n3c2)cc1 [Example 277′, 6-(1-(2,2-difluoroethyl)-4-(4-fluorophenyl)-1H-imidazol-5-yl)-3-(difluoromethyl)imidazo [1,2-a]pyridine]
13.1 nM | CCn1cnc(-c2ccc(F)c(Cl)c2)c1-c1ccc2ncc(C#N)n2c1 [94′, 6-(4-(3-chloro-4-fluorophenyl)-1-ethyl-1H-imidazol-5-yl)imidazo[1,2-a]pyridine-3-carbonitrile]
0.8 nM | N#Cc1cnc2ccc(-c3c(-c4ccc(F)c(Cl)c4)ncn3C3CCC3)nn12 [58′, 6-(4-(3-chloro-4-fluorophenyl)-1-cyclobutyl-1H-imidazol-5-yl)imidazo[1,2-b]pyridazine-3-carbonitrile]
140 nM | N#Cc1cnc2ccc(-c3c(-c4ccc(F)c(Cl)c4)ncn3C3COC3)cn12 [97′, 6-(4-(3-chloro-4-fluorophenyl)-1-(oxetan-3-yl)-1H-imidazol-5-yl)imidazo[1,2-a]pyridine-3-carbonitrile]
1.5 nM | N#Cc1cnc2ccc(-c3c(-c4ccc(F)c(Cl)c4)ncn3C3CCOC3)nn12 (stereo not drawn) [46′, 6-(4-(3-chloro-4-fluorophenyl)-1-(tetrahydrofuran-3-yl)-1H-imidazol-5-yl)imidazo[1,2-b]pyridazine-3-carbonitrile]
88.5 nM | CC(CO)n1cnc(-c2ccc(F)cc2)c1-c1ccc2ncc(C#N)n2c1 (stereo not drawn) [81′, 6-(4-(4-fluorophenyl)-1-(1-hydroxypropan-2-yl)-1H-imidazol-5-yl)imidazo[1,2-a]pyridine-3-carbonitrile]
44.8 nM | N#Cc1cnc2ccc(-c3c(-c4ccc(F)cc4)nc(N)n3CC(F)F)cn12 [Example 298′, 6-(2-amino-1-(2,2-difluoroethyl)-4-(4-fluorophenyl)-1H-imidazol-5-yl)imidazo[1,2-a]pyridine-3-carbonitrile]
0.8 nM | CC(F)(F)Cn1cnc(-c2ccc(F)c(Cl)c2)c1-c1ccc2ncc(C#N)n2n1 [56′, 6-(4-(3-chloro-4-fluorophenyl)-1-(2,2-difluoropropyl)-1H-imidazol-5-yl)imidazo[1,2-b]pyridazine-3-carbonitrile]
0.6 nM | CC(C)n1cnc(-c2ccc(F)c(Cl)c2)c1-c1ccc2ncc(C#N)n2n1 [51′, 6-(4-(3-chloro-4-fluorophenyl)-1-isopropyl-1H-imidazol-5-yl)imidazo[1,2-b]pyridazine-3-carbonitrile]
